Blank lines part the entries; values can stand above or below the molecule they belong to.
What was measured:
Type in all cases: cell-based
[1] = tested on: Acinetobacter baumannii 0604029; test: Peptidase detection on Columbia medium (Example 4); settings: 75 mg/l, 48 h 37° C.
From the text: (§1) After homogenization, the media were distributed into 120-mm-squared dishes. A medium serving as a growth control (Columbia) and denoted C was also poured.

[2] = tested on: Bacillus subtilis 0204038; test: Peptidase detection on Columbia medium (Example 4); settings: 75 mg/l, 48 h 37° C.
From the text: as §1

[3] = tested on: Burkholderia cepacia 7507032; test: Peptidase detection on Columbia medium (Example 4); settings: 75 mg/l, 48 h 37° C.
From the text: as §1

Candida albicans 0801025 = test: Peptidase detection on Columbia medium (Example 4); settings: 75 mg/l, 48 h 37° C.
From the text: as §1

Candida glabrata 0408083 = test: Peptidase detection on Columbia medium (Example 4); settings: 75 mg/l, 48 h 37° C.
From the text: as §1

[4] = tested on: Citrobacter freundii 0006197; test: Peptidase detection on Columbia medium (Example 4); settings: 75 mg/l, 48 h 37° C.
From the text: as §1

[5] = tested on: Enterobacter cloacae 0604040; test: Peptidase detection on Columbia medium (Example 4); settings: 75 mg/l, 48 h 37° C.
From the text: as §1

[6] = tested on: Enterococcus faecalis 0008192; test: Peptidase detection on Columbia medium (Example 4); settings: 75 mg/l, 48 h 37° C.
From the text: as §1

[7] = tested on: Enterococcus faecium 0610021; test: Peptidase detection on Columbia medium (Example 4); settings: 75 mg/l, 48 h 37° C.
From the text: as §1

Escherichia coli 0002005 = test: Peptidase detection on Columbia medium (Example 4); settings: 75 mg/l, 48 h 37° C.
From the text: as §1

[8] = tested on: Klebsiella pneumoniae 0008009; test: Peptidase detection on Columbia medium (Example 4); settings: 75 mg/l, 48 h 37° C.
From the text: as §1

[9] = tested on: Listeria monocytogenes 8812049; test: Peptidase detection on Columbia medium (Example 4); settings: 75 mg/l, 48 h 37° C.
From the text: as §1

MRSA 0303033 = test: Peptidase detection on Columbia medium (Example 4); settings: 75 mg/l, 48 h 37° C.
From the text: as §1

[10] = tested on: Morganella morganii 9207053; test: Peptidase detection on Columbia medium (Example 4); settings: 75 mg/l, 48 h 37° C.
From the text: as §1

[11] = tested on: Providencia rettgeri 0706064; test: Peptidase detection on Columbia medium (Example 4); settings: 75 mg/l, 48 h 37° C.
From the text: as §1

[12] = tested on: Pseudomonas aeruginosa 0001001; test: Peptidase detection on Columbia medium (Example 4); settings: 75 mg/l, 48 h 37° C.
From the text: as §1

[13] = tested on: Salmonella ser typhimurium 0801029; test: Peptidase detection on Columbia medium (Example 4); settings: 75 mg/l, 48 h 37° C.
From the text: as §1

[14] = tested on: Serratia marcescens 7303004; test: Peptidase detection on Columbia medium (Example 4); settings: 75 mg/l, 48 h 37° C.
From the text: as §1

[15] = tested on: Staphylococcus aureus 7811049; test: Peptidase detection on Columbia medium (Example 4); settings: 75 mg/l, 48 h 37° C.
From the text: as §1

[16] = tested on: Staphylococcus epidermidis 0203050; test: Peptidase detection on Columbia medium (Example 4); settings: 75 mg/l, 48 h 37° C.
From the text: as §1

[17] = tested on: Streptococcus pyogenes 9806380; test: Peptidase detection on Columbia medium (Example 4); settings: 75 mg/l, 48 h 37° C.
From the text: as §1

[18] = tested on: Yersinia enterocolitica 7605019; test: Peptidase detection on Columbia medium (Example 4); settings: 75 mg/l, 48 h 37° C.
From the text: as §1

[19] = tested on: Escherichia coli NCTC 10 418; test: Peptidase detection on Columbia medium (Example 2); set-up: key to Growth: NG: No growth; 0.5: weak growth; 1: moderate growth; 2: good growth; settings: 40 mg in 400 ml Columbia; 24 h 37° C.
[20] = tested on: Serratia marcescens NCTC 10 211; test: Peptidase detection on Columbia medium (Example 2); set-up: key to Growth: NG: No growth; 0.5: weak growth; 1: moderate growth; 2: good growth; settings: 40 mg in 400 ml Columbia; 24 h 37° C.
[21] = tested on: Pseudomonas aeruginosa NCTC 10 662; test: Peptidase detection on Columbia medium (Example 2); set-up: key to Growth: NG: No growth; 0.5: weak growth; 1: moderate growth; 2: good growth; settings: 40 mg in 400 ml Columbia; 24 h 37° C.
Method: (§2) The 6 media were distributed into Petri dishes 90 mm in diameter, in a proportion of 20 ml per dish.
(§3) Seventeen strains of microorganisms stemming from collections and belonging to various species of bacteria and yeasts are inoculated in spots of approximately 10 000 colony-forming units.
(§4) The media are incubated for 24 hours at 37° C., and then the colonies formed are examined visually, with or without the addition of acid and under a UV lamp at 365 nm.

[22] = tested on: Yersinia enterocolitica NCTC 11 176; test: Peptidase detection on Columbia medium (Example 2); set-up: key to Growth: NG: No growth; 0.5: weak growth; 1: moderate growth; 2: good growth; key to Color: —: no color; settings: 40 mg in 400 ml Columbia; 24 h 37° C.
Method: as §2, §3, §4

[23] = tested on: Salmonella typhimurium NCTC 74; test: Peptidase detection on Columbia medium (Example 2); set-up: key to Growth: NG: No growth; 0.5: weak growth; 1: moderate growth; 2: good growth; settings: 40 mg in 400 ml Columbia; 24 h 37° C.
[24] = tested on: Enterobacter cloacae NCTC 11 936; test: Peptidase detection on Columbia medium (Example 2); set-up: key to Growth: NG: No growth; 0.5: weak growth; 1: moderate growth; 2: good growth; settings: 40 mg in 400 ml Columbia; 24 h 37° C.
Method: as §2, §3, §4

[25] = tested on: Providencia rettgeri NCTC 7 475; test: Peptidase detection on Columbia medium (Example 2); set-up: key to Growth: NG: No growth; 0.5: weak growth; 1: moderate growth; 2: good growth; settings: 40 mg in 400 ml Columbia; 24 h 37° C.
Method: as §2, §3, §4

[26] = tested on: Bacillus subtilis NCTC 9 372; test: Peptidase detection on Columbia medium (Example 2); set-up: key to Growth: NG: No growth; 0.5: weak growth; 1: moderate growth; 2: good growth; key to Fluo. / Color / Color post-acid.: —: no color; settings: 40 mg in 400 ml Columbia; 24 h 37° C.
[27] = tested on: Enterococcus faecalis NCTC 775; test: Peptidase detection on Columbia medium (Example 2); set-up: key to Growth: NG: No growth; 0.5: weak growth; 1: moderate growth; 2: good growth; key to Fluo. / Color / Color post-acid.: —: no color; settings: 40 mg in 400 ml Columbia; 24 h 37° C.
Method: as §2, §3, §4

[28] = tested on: Enterococcus faecium NCTC 7 171; test: Peptidase detection on Columbia medium (Example 2); set-up: key to Growth: NG: No growth; 0.5: weak growth; 1: moderate growth; 2: good growth; key to Fluo. / Color / Color post-acid.: —: no color; settings: 40 mg in 400 ml Columbia; 24 h 37° C.
Method: as §2, §3, §4

[29] = tested on: Staphylococcus epidermidis NCTC 11 047; test: Peptidase detection on Columbia medium (Example 2); set-up: key to Growth: NG: No growth; 0.5: weak growth; 1: moderate growth; 2: good growth; key to Fluo. / Color / Color post-acid.: —: no color; settings: 40 mg in 400 ml Columbia; 24 h 37° C.
Method: as §2, §3, §4

[30] = tested on: Staphylococcus aureus NCTC 6 571; test: Peptidase detection on Columbia medium (Example 2); set-up: key to Growth: NG: No growth; 0.5: weak growth; 1: moderate growth; 2: good growth; key to Fluo. / Color / Color post-acid.: —: no color; settings: 40 mg in 400 ml Columbia; 24 h 37° C.
Method: as §2, §3, §4

[31] = tested on: Staphylococcus aureus NCTC 11 939; test: Peptidase detection on Columbia medium (Example 2); set-up: key to Growth: NG: No growth; 0.5: weak growth; 1: moderate growth; 2: good growth; key to Fluo. / Color / Color post-acid.: —: no color; settings: 40 mg in 400 ml Columbia; 24 h 37° C.
Method: as §2, §3, §4

[32] = tested on: Streptococcus pyogenes NCTC 8 306; test: Peptidase detection on Columbia medium (Example 2); set-up: key to Growth: NG: No growth; 0.5: weak growth; 1: moderate growth; 2: good growth; key to Fluo. / Color / Color post-acid.: —: no color; settings: 40 mg in 400 ml Columbia; 24 h 37° C.
[33] = tested on: Listeria monocytogenes NCTC 11 994; test: Peptidase detection on Columbia medium (Example 2); set-up: key to Growth: NG: No growth; 0.5: weak growth; 1: moderate growth; 2: good growth; key to Fluo. / Color / Color post-acid.: —: no color; settings: 40 mg in 400 ml Columbia; 24 h 37° C.
[34] = tested on: Candida albicans ATCC 90 028; test: Peptidase detection on Columbia medium (Example 2); set-up: key to Growth: NG: No growth; 0.5: weak growth; 1: moderate growth; 2: good growth; key to Fluo. / Color / Color post-acid.: —: no color; settings: 40 mg in 400 ml Columbia; 24 h 37° C.
[35] = tested on: Candida glabrata NCPF 3 943; test: Peptidase detection on Columbia medium (Example 2); set-up: key to Growth: NG: No growth; 0.5: weak growth; 1: moderate growth; 2: good growth; key to Fluo. / Color / Color post-acid.: —: no color; settings: 40 mg in 400 ml Columbia; 24 h 37° C.
Method: as §2, §3, §4

- Color [1]: orange
- Coloration strength [1]: +
- Growth ([1]; control C: ++): ++
- Color [2]: −
- Coloration strength [2]: −
- Growth ([2]; control C: ++): ++
- Color [3]: −
- Coloration strength [3]: −
- Growth ([3]; control C: ++): ++
- Color [4]: −
- Coloration strength [4]: −
- Growth ([4]; control C: ++): ++
- Color [5]: orange
- Coloration strength [5]: +
- Growth ([5]; control C: ++): ++
- Color [6]: −
- Coloration strength [6]: −
- Growth ([6]; control C: ++): ++
- Color [7]: −
- Coloration strength [7]: −
- Growth ([7]; control C: ++): ++
- Color [8]: orange
- Coloration strength [8]: +
- Growth ([8]; control C: ++): ++
- Color [9]: orange
- Coloration strength [9]: +
- Growth ([9]; control C: ++): ++
- Color (MRSA 0303033): −
- Coloration strength (MRSA 0303033): −
- Growth (MRSA 0303033; control C: ++): ++
- Color [10]: −
- Coloration strength [10]: −
- Growth ([10]; control C: ++): ++
- Color [12]: −
- Coloration strength [12]: −
- Growth ([12]; control C: ++): ++
- Color [13]: −
- Coloration strength [13]: −
- Growth ([13]; control C: ++): ++
- Color [14]: orange
- Coloration strength [14]: +
- Growth ([14]; control C: ++): ++
- Color [17]: orange
- Coloration strength [17]: +
- Growth ([17]; control C: ++): ++
SMILES: C[C@H](N)C(=O)N[C@@H](C)C(=O)Nc1ccc(C=Cc2cc[n+](C)c3ccccc23)cc1.Cl.[Cl-] [L-alanyl-L-alanyl-4-(4′-amidostyryl)-N-methylquinolinium (dichloride)]
- Coloration strength (Candida albicans 0801025): −
- Growth (Candida albicans 0801025; control C: ++): +
- Coloration strength (Candida glabrata 0408083): −
- Growth (Candida glabrata 0408083; control C: +): −
- Color (Escherichia coli 0002005): −
- Coloration strength (Escherichia coli 0002005): −
- Growth (Escherichia coli 0002005; control C: ++): ++
- Color [11]: −
- Coloration strength [11]: −
- Growth ([11]; control C: ++): ++
- Color [15]: −
- Coloration strength [15]: −
- Growth ([15]; control C: ++): ++
- Color [16]: −
- Coloration strength [16]: −
- Growth ([16]; control C: ++): ++
- Color [18]: −
- Coloration strength [18]: −
- Growth ([18]; control C: ++): ++

- Color [20]: Orange
- Growth [20]: 2
- Color [21]: Orange
- Growth [21]: 2
- Color [23]: Orange
- Growth [23]: 2
- Color [24]: Orange
- Growth [24]: 2
- Color [26]: —
- Growth [26]: 1
- Color [27]: —
- Growth [27]: 1
- Color [28]: —
- Growth [28]: 1
- Color [32]: —
- Growth [32]: 1
- Color [33]: —
- Growth [33]: 1
SMILES: C[n+]1ccc(C=Cc2ccc(NC(=O)CC[C@H](N)C(=O)O)cc2)c2ccccc21.Cl.[Cl-] [λ-Glu-ASQM^+, L-gamma-glutamyl-4-(4′-amidostyryl)-N-methylquinolinium (dichloride)]
- Color [19]: Orange
- Growth [19]: 2
- Color [22]: —
- Growth [22]: 2
- Color [25]: Orange
- Growth [25]: 2
- Color [29]: —
- Growth [29]: 1
- Color [30]: —
- Growth [30]: 1
- Color [31]: —
- Growth [31]: 1
- Color [34]: —
- Growth [34]: 1
- Color [35]: —
- Growth [35]: 1

Source: patent US8592174B2, “Peptidase substrates” (bioMérieux, S.A., priority 2009, dated 2013)
